Experimental data reported in US20250352675A1, “CA-IX TARGETING FLUORESCENT PROBES” (BRACCO IMAGING S.P.A., priority 2022, published 2025).

Experiments:
HT-29 cells = experiment: Receptor-mediated uptake: competition with 100x excess of acetazolamide in HT-29 cells; type: cell-based, human; conditions: 1 μM, 2 hours at 37° C., relative to uptake without acetazolamide
Procedure: The HT-29 cells were used as in vitro model to assess the cell uptake of the CA-IX targeting compounds of the invention, more specifically whether cellular internalization of compounds occurred after targeting to cell-surface-expressed CA-IX. Cellular uptake was evaluated by flow cytometry. […] Treatment with unconjugated dyes were used to estimate non-specific CA-IX-independent cellular uptake. Cell incubation on ice was used to discriminate the cell-associated fluorescence deriving from internalized and cell-surface associated compounds (37° C.), from the one deriving from solely cell surface-bound compounds (on ice). Treatment of HT-29 cells, grown in 24-well plates, was performed by rinsing cells in DPBS and then by incubation with treatment solutions, for the indicated times and temperatures, in the dark. At the end of treatment, cells were rinsed 3 times with cold DPBS, and detached from the plate with StemPro® Accutase® Cell Dissociation Reagent, collected in 1.5 mL tubes after dilution in DPBS and centrifuged (5 minutes, 350 RCF, 4° C.). The supernatant was then discarded, and the cell pellet was resuspended in 300 μL of cold FACS buffer, or in a suitable volume in order to obtain no more than 1,000 recorded events per μL during FACS analysis. Samples were analyzed with the flow cytometer Accuri™ C6 (BD Biosciences) using the 640 nm excitation laser and the emission 780/60 nm filter. At least 15000 valid events were collected for each sample. At the end of analysis, each sample was plotted in histograms, being X the fluorescence intensity (FL4-A) in log scale and Y the counts. Usually, a gaussian distribution of the cell population was observed. The data retrieved were the mean fluorescence of each population, considered the fluorescence intensity value of the corresponding sample. Independent replicates were performed for each experimental condition. Normalized cell-associated fluorescence was calculated with the following formula: […]

[1] = Optical characterization (excitation/emission maxima, molar extinction coefficient); type: physicochemical; conditions: in water
HT-29 tumor = experiment: Ex vivo tumor-to-background ratio in excised HT-29 tumors; design: species or system mice; conditions: 1 nmol/mouse, samples collected 24 hours after administration; tumor vs hind limb muscle
Procedure: The ex vivo biodistribution of the representative compounds 1, 2 and 3 and of the reference compound HF-1 (at 1 nmol/mouse) was evaluated in HT-29 excised tumors and tissues at the end of the in vivo OI sessions 24 hours post intravenous administration. At the end of the in vivo experiment, animals were euthanized by overdose of gaseous anesthesia followed by cervical dislocation. Tumor tissue, muscle, and other organs of interest were removed for ex vivo fluorescent signal measurements. The fluorescence signal intensity was measured by the IVIS Spectrum system. Regions of interest (ROIs) were drawn around each organ and tumor using the Living Image Software (PerkinElmer) and evaluating signal intensity in the tissues (expressed as Average Radiant Efficiency). The ratio between the fluorescence signal in the organs and tumor was then calculated to assess the contrast to hind limb muscle (representing the background).

CA-IX = target: T1, CA-IX (Homo sapiens, UniProt Q16790); experiment: Cellular binding assessment by flow cytometry on CA-IX expressing HT-29 cells; conditions: 1 hour 30 min on ice, read-out: CA-IX receptor affinity (KD, to HT-29 cells)
T1 construct: host or cells: HT-29 human colorectal adenocarcinoma cells
Procedure: Human colon adenocarcinoma HT-29 cells (ATCC) used for the cellular binding experiments were cultured in McCoy's 5A medium (Sigma-Aldrich), supplemented with 10% HyClone Fetal Clone III (Euroclone), 2 mM L-glutamine (Sigma-Aldrich), 100 IU/mL penicillin, 0.1 mg/mL streptomycin, 0.25 μg/mL amphotericin B (Antibiotic-Antimycotic solution, Life Technologies) and cells were grown at 37° C. in humidified atmosphere enriched with 5% CO2. DPBS without MgCl2 and CaCl2 (Sigma-Aldrich) was used for cell rinsing.
Indeed, by using the anti-human CA-IX antibody MAB2188 (R&D Systems) and the DAKO […], according to the instruction of the datasheet, HT-29 cells were estimated to express about 150,000 CA-IX molecules per cell. Thus, HT-29 cells were used to measure the binding of all compounds to CA-IX, expressed in its physiological environment at the cell-surface. Briefly, HT-29 cells were detached with StemPro® Accutase® Cell Dissociation Reagent (Life Technologies), collected in DPBS and counted. At least 2·10^5 cells were placed in 1.5 mL tubes on ice and resuspended in 50-100 μL of cold FACS buffer (eBioscience™ Flow Cytometry Staining Buffer, Invitrogen) containing scalar concentrations of compounds (compound 1: range 1-5 μM; compounds 2 and 3: range 0-20 μM). After incubation (1 hour and 30 min on ice in the dark), cells were rinsed 3 times in 300 μL of cold FACS buffer by centrifugation (5 min, 4° C., 350 RCF), discarding the supernatant. Cell pellets were then resuspended in 200 μL of cold FACS buffer (or in a suitable volume in order to obtain no more than 1000 recorded events per μL during FACS analysis) and analyzed with the flow cytometer Accuri™ C6 (BD Biosciences). The mean cell-associated fluorescence was plotted against concentration and the dissociation constant at equilibrium (Ko) was inferred by mathematical fitting with GraphPad Prism v.9 software, according to the following equation: […]
where Bmax is the maximum specific binding in the same units as Y. KD is the equilibrium dissociation constant, in the same units as X. NS is the slope of nonspecific binding in Y units divided by X units. Background is the amount of nonspecific binding with no added Compound.
All compounds were analyzed in at least three independent experiments. The calculated KD are summarized in Table III and compared with the one obtained for HF-1.

SMILES	% uptake in presence of 100x excess of acetazolamide (HT-29 cells) [%]	molar extinction coefficient (ε) [1] [M⁻¹ cm⁻¹]	ex vivo TBR ± SD, HT-29 tumor (HT-29 tumor)	Kd (CA-IX) [nM]
CC1(C)C(/C=C/C=C/C=C/C=C2/N(CCCCS(=O)(=O)O)c3ccc(C(=O)NC[C@H](O)[C@@H](O)[C@H](O)[C@H](O)CO)cc3C2(C)C)=[N+](CCCCS(=O)(=O)[O-])c2ccc(C(=O)NCCCCCCCC(=O)Nc3nnc(S(N)(=O)=O)s3)cc21 [Compound 1]	16.4 ± 1.9	240000	16.4 ± 4.4	68 ± 4
CC1(C)C(/C=C/C2=C(Oc3ccc(S(=O)(=O)O)cc3)C(=C/C=C3/N(CCCCS(=O)(=O)O)c4ccc(S(=O)(=O)O)cc4C3(C)C)/CCC2)=[N+](CCCCS(=O)(=O)[O-])c2ccc(C(=O)NCCCCCCCC(=O)Nc3nnc(S(N)(=O)=O)s3)cc21 [Compound 3]	18.1 ± 11.5	240000	5.8 ± 2.2	62 ± 4
CC1(C)C(/C=C/C=C/C=C/C=C2/N(CCCCS(=O)(=O)O)c3ccc(S(=O)(=O)O)cc3C2(C)C)=[N+](CCCCS(=O)(=O)[O-])c2ccc(C(=O)NCCCCCCCC(=O)Nc3nnc(S(N)(=O)=O)s3)cc21 [Compound 2]	28.4 ± 2.2	260000	15.2 ± 5.9	54 ± 3
